# From US11833139B2 (priority 2019, dated 2023)
# Where two headings read alike, the source gives them in different places.
# Columns and labels:
# [1] = tested on: panel of 293 CRAB strains (A. baumannii); experiment: MIC by agar dilution on Muller Hinton Agar, panel of 293 CRAB strains; assay type: cell-based
# Description: The strain panel contained isolates with 10% MDR (n=29), 86% XDR (n=253) and 4% (n=11) PDR phenotypes. Isolates were collected mainly from patients with pneumonia (59%), bloodstream infections (28%), and skin and soft tissue infections (11%) and categorized according to CLSI breakpoints as XDR when […] the antimicrobial classes described by Magiorakos et al. 2011. […] Comparator antibiotics were tested at CLSI standard conditions.
# [2] = tested on: A. baumannii ACC00445
# Description: (§1) A. baumannii clinical isolates were stored at −80° C. as 20% (v/v) in glycerol stock cultures.
# (§2) Selective agar plates were prepared using RPMI powder (Sigma R7755) dissolved at 10.3 g/L with agar at 15 g/L and boiled until complete agar melting. After cooling the media to 45° C., 0.3 g/L L-glutamine (Sigma G7513), 25 mM HEPES (Gibco 15630-056) and 10% (v/v) FCS (Gibco 10500-064) were added.
# (§3) The culture inocula were prepared from a bacterial NaCl suspension at 0.5 McFarland diluted 200-times in 100 mL of RPMI (Sigma R8758)+10% FCS in 500 mL flasks to reach ˜5×10^5 CFU/mL. The flasks were incubated for 24 h at 37° C. under shaking at 220 rpm. After incubation, the cells were pelleted by centrifugation (10 min, 7000 rpm at RT) and re-suspended in 1 mL PBS. […] After incubation at 35° C. for 24 h colonies were counted, and the frequency of resistance was calculated as the ratio between the number of colonies growing on plates with antibiotic and the total colony count of the inocula.
# [3] = tested on: A. baumannii LAC-4
# Description: as §1, §2, §3
# [4] = tested on: five clinical A. baumannii strains; settings: rifabutin concentrations of ≥2 mg/L
# Description: as §1, §2, §3
# [5] = tested on: A. baumannii UNT091
# Description: as §1, §2, §3
# [6] = tested on: A. baumannii HUMC-1; settings: HUMC-1, rifabutin 0.1 mg/L
# Description: as §1, §2, §3
# [7] = tested on: A. baumannii UNT238
# Description: as §1, §2, §3
# [8] = tested on: A. baumannii UNT091-1 ΔfhuE mutant; experiment: Neutropenic lung infection in CD-1 mice, wildtype versus ΔfhuE mutant; assay type: in vivo; settings: mice infected with UNT091-1::ΔfhuE, single IV dose at 2 h, burden at 26 hours
# Description: FIG. 6 is a graph showing CFU per lung pair in mice inoculated with A. baumannii strains. Neutropenic, female CD-1 mice (5 per group) were inoculated intranasally (t=0 hr) with equivalent titers (6.90 and 6.93 log10 CFU) of A. baumannii UNT091-1 wildtype and A. baumannii UNT091-1 ΔfhuE mutant. The treatment (single IV dose) was administered at 2-hour post-infection and bacterial burden was reported at 26 hours by determining CFU/lung. Furthermore, the effect of RBT was blunted in mice infected with the UNT091-1::ΔfhuE strain supporting the role of fhuE as mediating RBT sensitivity both in vitro and in vivo.
# [9] = tested on: A. baumannii; experiment: Target exposures (PK/PD index, sigmoid Emax model) for 1-log reduction in lung CFUs; assay type: in vivo
# [10] = tested on: A. baumannii; experiment: Liquid MIC determination using RPMI supplemented with FCS, clinical panel; assay type: cell-based; settings: Acinetobacter baumannii
# Excerpt: All isolates were resistant to carbapenems.
# [11] = tested on: A. baumannii ATCC 17978; experiment: MIC in fhuE expressing A. baumannii strains (plasmid-based expression, IPTG inducible); assay type: cell-based, Acinetobacter baumannii; settings: for MIC: Acinetobacter baumannii
# Excerpt: The fhuE gene (AWC45_RS10145) from the A. baumannii HUMC1 strain was cloned into the E. coli/A. baumannii shuttle plasmid pVT111 under the control of the isopropyl-beta-D-1-thiogalactopyranoside (IPTG) inducible promoter Ptrc-lacO. The resulting plasmid and the original pVT111 plasmid (control) were transferred to the A. baumannii strain ATCC-17978 by conjugation and transconjugants were selected on LB agar plates containing kanamycin.
# [12] = Acinetobacter baumannii, iron-chelated nutrient rich MHA (0.1 mM PIH), agar dilution
smiles,measurement,setting,value
CO[C@H]1/C=C/O[C@@]2(C)Oc3c(C)c(O)c4c(c3C2=O)C2=NC3(CCN(CC(C)C)CC3)NC2=C(NC(=O)/C(C)=C\C=C\[C@H](C)[C@H](O)[C@@H](C)[C@@H](O)[C@@H](C)[C@H](OC(C)=O)[C@@H]1C)C4=O [rifabutin],MIC50,[1]; [12],0.008 µg/mL
same,MIC90,[1]; [12],1 µg/mL
same,activity,[1]; standard MHA,only marginal activity
same,Frequency of Mutational Resistance (FoR),"[2]; ACC00445, rifabutin 0.02 mg/L",1.10E−05
same,Frequency of Mutational Resistance (FoR),"[2]; ACC00445, rifabutin 0.2 mg/L",8.10E−06
same,Frequency of Mutational Resistance (FoR),"[2]; ACC00445, rifabutin 2 mg/L",2.40E−09
same,Frequency of Mutational Resistance (FoR),"[2]; ACC00445, rifabutin 20 mg/L",5.70E−09
same,Frequency of Mutational Resistance (FoR),"[3]; LAC-4, rifabutin 0.2 mg/L",7.00E−05
same,Frequency of Mutational Resistance (FoR),"[3]; LAC-4, rifabutin 2 mg/L",5.00E−09
same,Frequency of Mutational Resistance (FoR),"[3]; LAC-4, rifabutin 20 mg/L",4.20E−09
same,frequency of mutational resistance,[4],~10^−9
same,Frequency of Mutational Resistance (FoR),"[5]; UNT091, rifabutin 0.02 mg/L",7.80E−06
same,Frequency of Mutational Resistance (FoR),"[5]; UNT091, rifabutin 0.2 mg/L",6.40E−06
same,Frequency of Mutational Resistance (FoR),"[5]; UNT091, rifabutin 2 mg/L",7.10E−09
same,Frequency of Mutational Resistance (FoR),"[5]; UNT091, rifabutin 20 mg/L",7.80E−09
same,Frequency of Mutational Resistance (FoR),[6],1.70E−05
same,Frequency of Mutational Resistance (FoR),"[7]; UNT238, rifabutin 0.2 mg/L",2.30E−05
same,Frequency of Mutational Resistance (FoR),"[7]; UNT238, rifabutin 2 mg/L",8.80E−10
same,Frequency of Mutational Resistance (FoR),"[7]; UNT238, rifabutin 20 mg/L",1.60E−08
same,effect on bacterial burden (CFU/lung),[8],blunted
same,Target AUC required to treat,[9]; MIC 0.5 mg/L,5.74 mg·h/L
same,Target Cmax required to treat,[9]; MIC 0.5 mg/L,1.30 mg/L
same,Target AUC required to treat,[9]; MIC 1 mg/L,11.48 mg·h/L
same,Target Cmax required to treat,[9]; MIC 1 mg/L,2.59 mg/L
same,Target AUC required to treat,[9]; MIC 2 mg/L,22.96 mg·h/L
same,Target Cmax required to treat,[9]; MIC 2 mg/L,5.19 mg/L
same,MIC50,[10],0.004 µg/mL
same,MIC90,[10],2 µg/mL
same,MIC,"[11]; ATCC17978, read-out: rifabutin MIC, FhuE expressing plasmid, CA-MHB 1 mM IPTG",0.002 µg/mL
same,MIC,"[11]; ATCC17978, read-out: rifabutin MIC, FhuE expressing plasmid, CA-MHB no IPTG",0.016 µg/mL
same,MIC,"[11]; ATCC17978, read-out: rifabutin MIC, empty plasmid, CA-MHB 1 mM IPTG",2 µg/mL
same,MIC,"[11]; ATCC17978, read-out: rifabutin MIC, empty plasmid, CA-MHB no IPTG",1 µg/mL
same,MIC,"[11]; ATCC17978, read-out: rifabutin MIC, no plasmid, CA-MHB 1 mM IPTG",4 µg/mL
same,MIC,"[11]; ATCC17978, read-out: rifabutin MIC, no plasmid, CA-MHB no IPTG",4 µg/mL
same,MIC lower in fhuE expressing plasmid strain compared to empty plasmid strain,[11]; in the presence of IPTG,1000 fold
